Reference: patent publication US11072627B2, “Uridine diphosphate derivatives, compositions and methods for treating neurodegenerative disorders” (Tufts University, priority 2011, dated 2021)
“Also recorded” adds a separate entry of the source. Where two headings read alike, the source gives them in different places.

Columns and labels:
P2Y6 receptor [1] = molecular target: T1, P2Y6 receptor (Homo sapiens, UniProt Q15077); assay: Activation of P2Y6 receptor, receptor induced Ca2+ changes with fluo-4; assay type: cell-based; parameters: expressed in transfected cells; host or cells: 1321N1 human astrocytoma cells
Protocol: (§1) Synthetic ligands were tested for activation of P2Y6 receptor by measuring receptor induced Ca^2+ changes with the fluorescent Ca^2+ indicator fluo-4. 1321N1 human astrocytoma cell lines either expressing P2Y2, P2Y4 or P2Y6 receptors were plated into 24-well plates. Two days after plating, fluorometric measurements were made and responses of cells to a serial dilution of ligands were determined. P2Y6 mediated Ca^2+ fluorescent change was determined by normalized accumulation of fluorescent change of 3 timepoints after ligand administration subtracted by value from ACSF control. Changes in fluorescent intensity were plotted corresponding to ligand concention in GraphPad. Dose-response curve and EC50 for each ligand was estimated using nonlinear curve fit and Sigmoidal dose-response analysis. […] The ability of the sodium salt of compound 5 to elevate Ca^2+ signals in P2Y6 expressing cells was attenuated by addition of the P2Y6 antagonist MRS2578.
as §1, with “fluo-4, and results are shown in FIG. 10(A)-(K).” for “fluo-4.”

PSAPP mice [2] = assay: Postmortem immunohistochemistry of plaque load in cortex and hippocampus; assay type: in vivo, mouse; settings: for immunoreactivity of β1-40 (plaque load): i.p. for 4 and 6 consecutive days
Text: (§2) Heterozygous mutant (K670N/M671L) APP (50% C57B6, 50% SJL) transgenic mice were crossed with heterozygous mutant (A246E) PS-1 (50% C57B6, 50% SJL) transgenic mice to generate heterozygous PSAPP transgenic mice (also referred to as PS-1/APP or PSAPP+/+ mice), which refers to animals heterozygous for the PS-1 A246E transgene and the APP K670N/M671L transgene. Non-transgenic control animals were littermates (also referred to as PSAPP_−/− mice) generated in the breeding for PSAPP transgenic animals. Mouse genotype was determined by Polymerase Chain Reaction (PCR). Both male and female mice of 6-7 months old were used for the experiments below. All animal experiments were performed in accordance with the Tufts Animal Care and Use Committee and with national regulations and policies.
Mice were perfused transcardially with 4% paraformaldehyde and 40 μm Coronal sections were collected. Sections were sequentially incubated in 0.3% H2O2 for 10 minutes, blocking solution for 2 hrs, blocking solution containing the primary antibody (rabbit anti-beta1-42; rabbit anti-beta1-40, from Chemicon International and rat anti-CD45) for 48 hours at 4° C., and blocking solution containing biotinylated antibody or fluorescently-labeled antibody for 2 hours at room temperature. Sections were visualized in a bright field microscope or a confocal microscope, and the optical density was obtained using MetaMorph software.
After repeated imaging, brains were fixed and subjected to postmortem immunohistochemistry with amyloid beta specific antibodies β1-40 and β1-42 to evaluate the plaque load (area occupied by immunostaining of plaque) in cortex and hippocampus.
PSB0474 was systemically administered to PSAPP mice via intraperitoneal injection for 2, 4 and 6 consecutive days. In one group, prior to evaluation and following to administration for 6 consecutive days, treatment was suspended for two weeks (6+2 weeks group). Brains were then fixed and plaque load was evaluated by immunostaining with the amyloid beta specific antibodies: β1-40 and β1-42. Representative images of plaque load in cortex and hippocampus from animals that received injections of PSB0474 according to the foregoing injection schedules are shown in FIG. 5(A)-(D). […] Whereas, when administration of PSB0474 was stopped for 2 weeks following six consecutive days of treatment (denoted as the 6+2 weeks group), β1-40 staining rebounded; although to a level lower than observed in mice treated with saline as a vehicle control. […]
To generate these graphs showing plaque load, mice were euthanized, brain sections cut and antibodies directed against Aβ 42 were used to disclose Aβ plaques. […] The algorithm then calculated the percent area of the field of view occupied by the plaques.

PSAPP mice [3] = assay: Contextual fear conditioning test; assay type: in vivo, mouse
Text: as §2
On day one, animals were trained in a fear conditioning apparatus for a total of 7 minutes with a two-pairing paradigm of cue and mild foot shock (a 30-s acoustic-conditioned stimulus, 80 dB; a 2-s shock stimulus, 0.5 mA). To evaluate contextual fear learning, the animals were returned to the training context 24 hours post-training, and freezing behavior was scored for 5 minutes. Freezing behavior was monitored by MotorMonitor (Hamilton Kinder) and scored every 5 seconds.
In this study, the fear conditioning associative learning paradigm was used as a rapid cognition assay for PSAPP mice. This study allowed us to probe cognitive function with a single training day followed in 24 hours by tests for contextual and cued fear learning. Contextual fear learning is dependent upon a brain area that has been implicated as a locus for cognitive decline in AD: the hippocampus. Two pairings of CS-US for fear conditioning were followed 24 hours later by testing for contextual and cued fear learning. Previous studies have reported that PSAPP animals appear to have a selective hippocampus-dependent impairment in associative learning following two pairings of conditioned stimuli for fear conditioning.
This represents a decrease in the cognitive impairment observed in the untreated mice.

PSAPP mice [4] = assay: Tolerability of increased dose of PSB0474; assay type: in vivo, mouse; settings: 1000× increase in dose
P2Y6 receptor [5] = molecular target: T1, P2Y6 receptor; settings: cited from earlier work
PSAPP mice [6] = assay: Two-photon in vivo imaging of amyloid plaques in barrel cortex; parameters: species or system mouse
Text: as §2
In this study, PSAPP mice were anesthetized using isoflurane and a thin-skull preparation was used to minimize the surface damage. Amyloid plaques were visualized with methoxyX04 labeling and blood plasma was labeled with Rhodamine dextran to facilitate re-localization of the same imaging area. Stack images were obtained using a two-photon system (Prairie Technologies) with excitation at 850 nm. The emission was detected by external photomultiplier tubes (525/70; DLCP 575; 607/45 nm).
Animals were anesthetized and immobilized in a stereotaxic frame. For each injection, 1 μl of 10 mM UDP or other suitable compounds in artificial cerebrospinal fluid (ACSF) as the vehicle were injected intraventricularly using the following coordinates: AP 0.2 mm, ML 1 mm, and DV 2.2 mm.
To evaluate the effect of UDP on plaque burden, two-photon microscopy was used to assess the amyloid plaques in the barrel cortex in living PSAPP mice. Amyloid plaques were stained by systemically administered methoxy-X04. One day prior to imaging, PSAPP mice were injected with methoxyX04 to label the amyloid plaques. On the imaging day, to facilitate the re-location of the same imaging area, blood plasma was labeled with Rhodamine dextran. Images were obtained from the same start- and end-point to ensure the same image volume.
The results were shown in a maximum intensity projection of a fluorescent stack containing 45 planes. Immediately after imaging, animals were injected with ACSF or UDP intracerebroventricularly (i.c.v.) and allowed to recover. On day 4, animals were subjected to a second period of imaging of the same regions studied on day 1 and the results are shown in FIG. 1(D)-(F). The similar pattern of angiopathy (shown by open arrows) indicated the same imaging area.

PSAPP mice [7] = assay: Soluble Abeta level detected with ELISA; assay type: in vivo, mouse; settings: UDP treatment
PSAPP mice [8] = assay: Hippocampal long-term potentiation (LTP) recording; assay type: in vivo, mouse
Protocol: Hippocampal slices ([…] thick) were prepared from 6-month-old PSAPP mice. Baseline responses were obtained every 10 seconds and Input-output (I/O) curves, paired-pulse modification and LTP were successively measured. The stimulation intensity was set to a level that gives a value of 30% of the maximum obtained. LTP were induced by high frequency stimulation (HFS, 100 pulses at 100 Hz, four times) or by theta-burst stimulation (TBS, 10 bursts at 5 Hz, repeated 10 times in 15 s intervals).
Accumulated evidence has shown that amyloid peptides naturally secreted or isolated from Alzheimer's brains impair synaptic plasticity, especially hippocampal long-term potentiation (Walsh et al., 2002). Therefore, we further performed LTP recordings in PASPP mice and investigated whether P2Y6 receptor-mediated plaque clearance affects synaptic plasticity. […] First, it was observed that LTP at the schaffer collateral synapse within the CA1 region was depressed in PSAPP mice, as compared with littermates (FIG. 8(A)).

PSAPP mice [9] = assay: Postmortem immunohistochemistry of plaque load in cortex and hippocampus; assay type: in vivo, mouse; settings: for decrease in plaque load: acute i.c.v. UDP
P2Y2 receptor = molecular target: T2, P2Y2 receptor (Homo sapiens, UniProt P41231); assay: Ca2+ mobilizing effect in 1321N1 cells expressing P2Y2 (fluo-4); assay type: cell-based; settings: sodium salt; 1321N1 human astrocytoma cells expressing P2Y2
T2 construct: expressed in transfected cells; host or cells: 1321N1 human astrocytoma cells
Protocol: (§3) Synthetic ligands were tested for activation of P2Y6 receptor by measuring receptor induced Ca^2+ changes with the fluorescent Ca^2+ indicator fluo-4. 1321N1 human astrocytoma cell lines either expressing P2Y2, P2Y4 or P2Y6 receptors were plated into 24-well plates. Two days after plating, fluorometric measurements were made and responses of cells to a serial dilution of ligands were determined. P2Y6 mediated Ca^2+ fluorescent change was determined by normalized accumulation of fluorescent change of 3 timepoints after ligand administration subtracted by value from ACSF control. Changes in fluorescent intensity were plotted corresponding to ligand concention in GraphPad. Dose-response curve and EC50 for each ligand was estimated using nonlinear curve fit and Sigmoidal dose-response analysis. […]
(§4) Synthetic ligands were tested for activation of P2Y6 receptor by measuring receptor induced Ca^2+ changes with the fluorescent Ca^2+ indicator fluo-4, and results are shown in FIG. 10(A)-(K). […] Two days after plating, fluorometric measurements were made and responses of cells to a serial dilution of ligands were determined. P2Y6 mediated Ca^2+ fluorescent change was determined by normalized accumulation of fluorescent change of 3 timepoints after ligand administration subtracted by value from ACSF control. […]

P2Y4 receptor = molecular target: T3, P2Y4 receptor (Homo sapiens, UniProt P51582); assay: Ca2+ mobilizing effect in 1321N1 cells expressing P2Y4 (fluo-4); assay type: cell-based; settings: sodium salt; 1321N1 human astrocytoma cells expressing P2Y4
T3 construct: expressed in transfected cells; host or cells: 1321N1 human astrocytoma cells
Protocol: as §3, §4

[10] = acute i.c.v. UDP, barrel cortex, day 4 vs day 1, P<0.01

T1 sequence (Q15077 whole entry): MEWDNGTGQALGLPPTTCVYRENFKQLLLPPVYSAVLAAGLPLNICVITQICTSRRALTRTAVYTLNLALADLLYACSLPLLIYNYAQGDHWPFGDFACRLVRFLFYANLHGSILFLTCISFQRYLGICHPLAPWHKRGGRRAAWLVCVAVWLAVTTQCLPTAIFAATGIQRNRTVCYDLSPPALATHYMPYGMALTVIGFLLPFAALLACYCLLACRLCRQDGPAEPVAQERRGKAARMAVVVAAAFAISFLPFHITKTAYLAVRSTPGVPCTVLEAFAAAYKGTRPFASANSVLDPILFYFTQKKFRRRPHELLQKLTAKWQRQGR
T3 sequence (P51582 whole entry): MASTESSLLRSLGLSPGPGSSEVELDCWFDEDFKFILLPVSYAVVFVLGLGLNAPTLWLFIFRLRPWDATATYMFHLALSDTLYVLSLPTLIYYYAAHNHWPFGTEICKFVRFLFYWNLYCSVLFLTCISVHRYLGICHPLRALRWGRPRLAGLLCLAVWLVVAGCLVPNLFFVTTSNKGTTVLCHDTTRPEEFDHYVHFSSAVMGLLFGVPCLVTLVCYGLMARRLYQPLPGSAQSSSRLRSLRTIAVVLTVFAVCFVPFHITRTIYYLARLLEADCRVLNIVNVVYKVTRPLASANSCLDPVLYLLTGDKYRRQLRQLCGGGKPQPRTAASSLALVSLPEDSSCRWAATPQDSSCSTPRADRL
T2 sequence (P41231 whole entry): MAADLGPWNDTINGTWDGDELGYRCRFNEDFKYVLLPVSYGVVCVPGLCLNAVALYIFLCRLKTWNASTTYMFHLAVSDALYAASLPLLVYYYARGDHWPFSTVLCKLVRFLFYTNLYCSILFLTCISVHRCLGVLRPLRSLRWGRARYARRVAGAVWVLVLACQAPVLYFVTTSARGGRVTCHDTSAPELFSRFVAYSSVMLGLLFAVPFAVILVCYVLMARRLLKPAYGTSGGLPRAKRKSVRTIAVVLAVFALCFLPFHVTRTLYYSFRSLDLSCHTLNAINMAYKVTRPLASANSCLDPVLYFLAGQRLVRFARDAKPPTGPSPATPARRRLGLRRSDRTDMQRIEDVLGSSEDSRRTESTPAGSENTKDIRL

S=C=Nc1cccc(NC(=S)NCCCCNC(=S)Nc2cccc(N=C=S)c2)c1 [MRS2578]
effect of antagonist on ability of sodium salt of compound 5 to elevate Ca2+ signals (P2Y6 receptor [1]; P2Y6 expressing cells, MRS2578 added): attenuated

O=C(Cn1c(=O)ccn([C@@H]2O[C@H](COP(=O)(O)OP(=O)(O)O)[C@@H](O)[C@H]2O)c1=O)c1ccccc1 [PSB0474, 3-phenacyl-UDP]
β1-40 staining after stopping treatment (PSAPP mice [2]; 6 consecutive days i.p., then stopped for 2 weeks (6+2 weeks group), level lower than saline control): rebounded
immunoreactivity of β1-40 (plaque load) (PSAPP mice [2]; cortex): significantly decreased
effects on the efficacy endpoint at higher dose (PSAPP mice [2]; higher dose of 1 mg/kg, one week daily treatment): smaller effects
immunoreactivity of β1-40 (plaque load) (PSAPP mice [2]; hippocampus): significantly decreased
memory deficit compared to vehicle treatment (PSAPP mice [3]; FIG. 9C, one week treatment with 1 ug/kg): rescued the memory deficit
total freezing percentage in context test (PSAPP mice [3]; chronic injection of PSB0474, two different doses): increased
detrimental effects to the animal (PSAPP mice [4]): did not cause detrimental effects
EC50 (P2Y6 receptor [5]; P2Y6 receptor agonist): 70 nM
selectivity for P2Y6 receptor (P2Y6 receptor [5]): > 500 fold

O=c1ccn([C@@H]2O[C@H](COP(=O)(O)OP(=O)(O)O)[C@@H](O)[C@H]2O)c(=O)[nH]1 [UDP, uridine diphosphate]
day 4/day 1 ratios of plaque load (PSAPP mice [6]; FIG. 2D, UDP vs ACSF, barrel cortex): significant reductions
day 4/day 1 ratios, number of plaques (PSAPP mice [6]; FIG. 2E, UDP vs ACSF, barrel cortex): significant reductions
reduction in plaque load (PSAPP mice [6]; [10]): 17.2%
reduction in the number of plaques (PSAPP mice [6]; [10]): 12.6%
reduction in cross-sectional area of individual identified plaques (PSAPP mice [6]; acute i.c.v. UDP, second imaging session, P<0.01): 18.2%
soluble Aβ40 level (PSAPP mice [7]; FIG. 4E): decreased
soluble Aβ42 level (PSAPP mice [7]; FIG. 4F): decreased
freezing behavior compared to ACSF treatment (PSAPP mice [3]; FIG. 7C, UDP-treatment 3 days prior to the test): significantly improved
freezing behavior during 5 minute-testing time (PSAPP mice [3]; UDP treatment, during the first 4 minutes, not the last minute): increased freezing behavior
total freezing percentage (PSAPP mice [3]; acute UDP i.c.v., contextual test, ACSF control 18%±3%): 49%±5%
field excitatory postsynaptic potential (fEPSP), last 15 min potentiation (PSAPP mice [8]; UDP treatment, comparable to level in littermates): significant increase
LTP at schaffer collateral synapse, CA1 (PSAPP mice [8]; acute UDP treatment vs ACSF, HFS): reversed this LTP deficit
decrease in plaque load (PSAPP mice [9]; cortex, β1-40 antibody, p<0.05): 60%
decrease in plaque load (PSAPP mice [9]; cortex, β1-42 antibody, P<0.01): 48%
decrease in plaque load (PSAPP mice [9]; hippocampus, β1-40 antibody, p<0.01): 62%
decrease in plaque load (PSAPP mice [9]; hippocampus, β1-42 antibody, P<0.05): 47%

O=c1ccn([C@@H]2O[C@H](COP(=O)(O)OP(=O)(O)O)[C@H](O)C2O)c(=O)n1Cc1noc2ccccc12 (stereo partly shown) [compound 5]
elevating Ca2+ levels in P2Y2 receptor expressing cells (P2Y2 receptor): not effective
elevating Ca2+ levels in P2Y4 receptor expressing cells (P2Y4 receptor): not effective
freezing behavior compared to the control treatment (PSAPP mice [3]; FIG. 11, compound 5 prior to the test): significantly improved; also recorded: restored to a level equivalent to that observed in wildtype animals
total freezing percentage in the context test (PSAPP mice [3]; compound 5 i.p. daily for 7 consecutive days, 1 ug/kg or 1 mg/kg): increased
Aβ plaque load (%) in the cortex vs vehicle control (PSAPP mice [9]; FIG. 12A, β1-42 antibody, compound 5 i.p. 7 days): substantial decrease
Aβ plaque load (%) in the hippocampus vs vehicle control (PSAPP mice [9]; FIG. 12B, β1-42 antibody, compound 5 i.p. 7 days): substantial decrease
elevating Ca2+ levels in cells expressing P2Y6 receptors (P2Y6 receptor [1]; sodium salt, 1321N1 human astrocytoma cells expressing P2Y6): only effective
EC50 (P2Y6 receptor [1]; sodium salt, 1321N1 human astrocytoma cells expressing P2Y6, fluo-4 Ca2+): 12 nM
